We go through one compound from patent US20050142204A1 (priority 2001, published 2005).

In series [1] the test system is fatty acid synthesis in Plasmodium falciparum. As to conditions: cited from earlier work.
For series [2] the following is noted: topical and oral; Bhargava & Leonard 1996; cited from earlier work.
The conditions of series [3]: cited from earlier work.
The next series can be described thus: Solubility of triclosan. The format is physicochemical.
For series [4] the following is noted: human, in vivo, 552 mg. The protocol: Four volunteers were invited randomly to take part in the trial. The volunteers were in a rested and fasted state when the trial began. A single dose of 552 mg (two soft gelatine capsules) was administered and blood samples were drawn 15 times over 36 hours.
Quantitative analysis of the blood samples was conducted using an HPLC method developed and validated at the Research Institute for Industrial Pharmacy. Results of the analysis were evaluated statistically and values for AUC, Cmax and tmax were obtained.
A) Chromatographic Condition: • Analytical instrument: HP1050 series HPLC with a pump, autosampler, UV detector and Chemstation Rev.
B) Sample Preparation with enzymatic hydrolysis: • 1. Pipet 1 ml of plasma into a 5 ml siliconised glass test tube. • 2. Add 1 ml of 0.2 M sodium acetate-acetic acid buffer, pH 5.0. • 3. […] Vortex mix for 10 seconds, seal and incubate at 40° C. for 12 hours. • 5. Add 0.5 ml of the internal standard solution and centrifuge at 14000 rpm (4900 RCF) for 10 minutes before applying to the SPE columns.
C) Internal Standard Solution: • 1. Weight approximately 5 mg of acenaphthene accurately and dissolve in 250 ml of solvent. • 2. Add 0.5 ml of this solution to all standards and samples.
D) Standard Solution: • 1. […] Make further dilutions of 5 ml to 100 ml and 10 ml to 50 ml in water to obtain 80, 16- and 4.0 μg/ml stock solutions.
3. […]

Another series has as its system malaria parasites. As to conditions: Surolia 2001, cited from earlier work.

Turning to `Oc1cc(Cl)ccc1Oc1ccc(Cl)cc1Cl` [triclosan], the “concentration sufficient for 50% inhibition of fatty acid synthesis” value in series [1] (Surolia and Surolia (2001:168), printed in brackets beside the μM value) is 580 ng/mL. Also, the IC50 in series [1] (read-out: concentration sufficient for 50% inhibition of fatty acid synthesis, Surolia and Surolia (2001:168)) was 3000 nM. For the same compound, in series [2], the “safety in toxicity studies” value is “safe topically as well as orally”. Moreover, the solubility in water entry in series [3] is on record as “very low solubility in water”. Further, the solubility in oils entry in “Solubility of triclosan” is “very soluble in oils”. In series [4], the bioavailability result is listed as “good in three of the four volunteers”. For the same compound, in the series with malaria parasites, the “activity against malaria parasites” value is on record as “active against malaria parasites”. In addition, the effective dose with malaria parasites (malaria) is 28 to 38 mg/kg.
